The supplement of paper PMC10307832

Experiments:
Assay in all cases: relative viability (nuclei count vs DMSO), 5 days (fraction); higher = more cells survive
CX-5461 + OSI-027 = compound: Cc1cnc(CNC(=O)c2c(=O)c3ccc(N4CCCN(C)CC4)nc3n3c2sc2ccccc23)cn1 [CX-5461] + COc1cccc2cc(-c3nc([C@H]4CC[C@H](C(=O)O)CC4)n4ncnc(N)c34)[nH]c12 [OSI-027] (partner 0.5 µM)
How it was run: (§1)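 Lung cancer cell lines, seeded in 1536-well plates, were treated the following day by pin tool with a single drug or with five library-drug doses (not always all listed) in √10 steps on top of a fixed anchor-drug dose. Cells were fixed and nuclei stained in one step after 5 days, and nuclei were counted. Relative viability is the nuclei count for treated wells divided by that for vehicle wells, reported as medians of duplicate plates.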

CX-5461 + Crizotinib = compound: Cc1cnc(CNC(=O)c2c(=O)c3ccc(N4CCCN(C)CC4)nc3n3c2sc2ccccc23)cn1 [CX-5461] + C[C@@H](Oc1cc(-c2cnn(C3CCNCC3)c2)cnc1N)c1c(Cl)ccc(F)c1Cl [Crizotinib] (partner 1 µM)
How it was run: as §1

CX-5461 + Decitabine = compound: Cc1cnc(CNC(=O)c2c(=O)c3ccc(N4CCCN(C)CC4)nc3n3c2sc2ccccc23)cn1 [CX-5461] + Nc1ncn([C@H]2C[C@H](O)[C@@H](CO)O2)c(=O)n1 [Decitabine] (partner 2 µM)
How it was run: as §1

IMD-0354 + OSI-027 = compound: O=C(Nc1cc(C(F)(F)F)cc(C(F)(F)F)c1)c1cc(Cl)ccc1O [IMD-0354] + COc1cccc2cc(-c3nc([C@H]4CC[C@H](C(=O)O)CC4)n4ncnc(N)c34)[nH]c12 [OSI-027] (partner 0.5 µM)
How it was run: as §1

| Cell Line | relative viability (CX-5461 + OSI-027; first compound 0.01 µM) | relative viability (CX-5461 + OSI-027; first compound 0.03162 µM) | relative viability (CX-5461 + OSI-027; first compound 0.1 µM) | relative viability (CX-5461 + OSI-027; first compound 0.3162 µM) | relative viability (CX-5461 + OSI-027; first compound 1 µM) | relative viability (CX-5461 + Crizotinib; first compound 0.01 µM) | relative viability (CX-5461 + Crizotinib; first compound 0.03162 µM) | relative viability (CX-5461 + Crizotinib; first compound 0.1 µM) | relative viability (CX-5461 + Crizotinib; first compound 0.3162 µM) | relative viability (CX-5461 + Crizotinib; first compound 1 µM) | relative viability (CX-5461 + Decitabine; first compound 0.01 µM) | relative viability (CX-5461 + Decitabine; first compound 0.03162 µM) | relative viability (CX-5461 + Decitabine; first compound 0.1 µM) | relative viability (CX-5461 + Decitabine; first compound 0.3162 µM) | relative viability (CX-5461 + Decitabine; first compound 1 µM) | relative viability (IMD-0354 + OSI-027; first compound 0.04 µM) | relative viability (IMD-0354 + OSI-027; first compound 0.1265 µM) | relative viability (IMD-0354 + OSI-027; first compound 0.4 µM) | relative viability (IMD-0354 + OSI-027; first compound 1.265 µM) | relative viability (IMD-0354 + OSI-027; first compound 4 µM) |
| --- | --- | --- | --- | --- | --- | --- | --- | --- | --- | --- | --- | --- | --- | --- | --- | --- | --- | --- | --- | --- |
| NCI-H596 | 0.711 | 0.737 | 0.775 | 0.715 | 0.591 | 0.981 | 0.972 | 0.973 | 1.19 | 0.907 | 1.14 | 0.994 | 1.06 | 1.05 | 0.872 | 0.881 | 0.812 | 0.429 | 0.793 | 0.246 |
| NCI-H727 | 0.59 | 0.866 | 0.622 | 0.58 | 0.584 | 0.695 | 0.835 | 0.692 | 0.767 | 0.703 | 0.89 | 0.917 | 0.839 | 0.83 | 0.956 | 0.93 | 0.585 | 0.415 | 0.395 | 0.312 |
| H3255 | 0.568 | 0.542 | 0.559 | 0.543 | 0.568 | 0.849 | 0.957 | 0.883 | 0.268 | 0.662 | 0.634 | 0.611 | 0.73 |  | 0.624 | 0.549 | 0.59 | 0.585 | 0.488 | 0.302 |
| LK-2 | 0.268 | 0.173 | 0.185 | 0.162 | 0.179 |  | 0.188 | 0.214 |  | 0.239 | 0.329 | 0.278 | 0.302 | 0.162 | 0.279 | 0.193 | 0.198 | 0.235 | 0.19 | 0.215 |
| NCI-H1437 | 0.912 | 0.869 |  | 0.841 | 0.662 | 1 | 0.948 |  | 0.885 | 0.791 | 0.603 | 0.556 | 0.545 | 0.51 | 0.435 | 0.915 | 0.763 | 0.544 | 0.22 | 0.25 |
| LU99A | 0.338 | 0.295 | 0.333 | 0.257 | 0.258 | 0.571 | 0.552 | 0.495 | 0.344 | 0.453 | 0.925 | 0.958 | 0.923 | 0.594 | 0.79 | 0.351 | 0.286 | 0.246 | 0.259 | 0.196 |
| HCC-827 | 0.838 | 0.828 | 0.79 | 0.757 | 0.735 | 0.876 | 0.877 | 0.905 | 0.866 | 0.846 | 0.339 | 0.337 | 0.342 | 0.282 | 0.3 | 0.67 | 0.693 | 0.621 | 0.225 | 0.196 |
| HCC-366 | 0.987 | 1 | 0.89 | 0.764 | 0.175 | 0.693 | 0.82 | 0.573 | 0.252 | 0.48 | 0.37 | 0.349 | 0.293 | 0.347 | 0.327 | 0.909 | 0.929 | 0.496 | 0.209 | 0.0404 |
| BEN | 0.346 | 0.321 | 0.286 | 0.281 | 0.284 | 1 | 0.905 | 0.912 | 0.832 | 0.752 | 0.757 | 0.706 | 0.711 | 0.652 | 0.545 | 0.306 | 0.301 | 0.264 | 0.311 | 0.195 |
| NCI-H23 | 0.672 | 0.757 | 0.546 | 0.544 | 0.343 | 0.609 | 0.584 | 0.55 | 0.437 | 0.48 | 0.371 | 0.344 | 0.363 | 0.299 | 0.268 | 0.538 | 0.631 | 0.341 | 0.195 | 0.19 |
| 201T | 0.911 | 0.669 | 0.726 | 0.502 | 0.552 | 1.07 | 1.02 | 1.02 | 1.03 | 1.01 | 0.861 | 0.849 | 0.885 | 0.814 | 0.834 | 0.596 | 0.882 |  | 0.553 | 0.175 |
| NCI-H358 | 0.621 | 0.939 | 0.69 | 0.592 | 0.194 | 0.524 | 0.57 | 0.365 | 0.26 | 0.174 | 0.206 | 0.195 | 0.151 | 0.149 | 0.121 | 0.676 | 0.826 | 0.403 | 0.124 | 0.141 |
| NCI-H460 | 0.573 | 0.541 |  | 0.684 | 0.0247 | 1.03 | 1.06 | 0.077 | 0.567 | 0.0138 | 0.551 | 0.429 | 0.228 | 0.391 | 0.0313 | 0.886 | 0.626 | 0.225 | 0.0286 | 0.0262 |
| NCI-H661 | 0.654 | 0.698 | 0.615 | 0.834 | 0.387 | 1.01 | 1.08 | 1.02 | 0.615 | 0.944 | 0.523 | 0.531 | 0.458 | 0.429 | 0.383 | 0.812 | 0.66 | 0.577 | 0.264 | 0.25 |
| HCC-15 | 0.692 | 0.71 | 0.66 | 0.554 | 0.253 | 0.884 | 0.888 | 0.765 | 0.766 | 0.691 | 0.684 | 0.654 | 0.605 | 0.69 | 0.354 | 0.656 | 0.615 | 0.366 | 0.164 | 0.131 |
| ABC-1 | 0.465 | 0.562 | 0.251 |  | 0.362 | 1.07 | 1.57 |  | 0.57 | 0.323 | 0.971 |  | 1.38 | 0.429 | 0.96 | 0.517 | 0.331 | 0.369 | 0.207 | 0.23 |
| LCLC-103H | 0.458 | 0.433 | 0.434 | 0.446 | 0.384 | 1.12 | 1.08 | 1.13 | 1.04 | 1.08 | 0.684 | 0.743 | 0.705 | 0.766 | 0.707 | 0.592 | 0.471 | 0.375 | 0.295 | 0.196 |
| NCI-H441 | 0.696 | 0.659 | 0.607 | 0.534 | 0.408 | 0.642 | 0.719 | 0.867 | 0.673 | 0.509 | 0.234 | 0.206 | 0.214 | 0.275 | 0.191 | 0.593 | 0.604 | 0.329 | 0.169 | 0.231 |
| EPLC-272H | 0.259 | 0.288 | 0.297 |  | 0.31 | 1.04 | 1.01 | 0.941 |  | 0.985 | 0.358 | 0.425 | 0.396 |  | 0.297 | 0.288 | 0.281 | 0.292 | 0.167 | 0.0714 |
